Where two headings read alike, the source gives them in different places.
Key:
PYR1 = biological target: T1, PYR1 (Arabidopsis thaliana, UniProt O49686); experiment: receptor-mediated PP2C (HAB1) inhibition in vitro assay; type: biochemical; settings: for remaining activity at 50 µM: 50 uM of the test compound
T1 construct: 6X-His; made in house; host or cells: E. coli BL21[DE3]pLysS
T1 sequence (O49686 1-191): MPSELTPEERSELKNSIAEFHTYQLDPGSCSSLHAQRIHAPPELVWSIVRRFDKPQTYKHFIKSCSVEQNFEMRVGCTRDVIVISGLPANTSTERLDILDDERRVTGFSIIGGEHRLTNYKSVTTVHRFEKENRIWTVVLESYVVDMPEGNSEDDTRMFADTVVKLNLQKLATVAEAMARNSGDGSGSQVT
T1 sequence (Q9CAJ0 23-511 partner): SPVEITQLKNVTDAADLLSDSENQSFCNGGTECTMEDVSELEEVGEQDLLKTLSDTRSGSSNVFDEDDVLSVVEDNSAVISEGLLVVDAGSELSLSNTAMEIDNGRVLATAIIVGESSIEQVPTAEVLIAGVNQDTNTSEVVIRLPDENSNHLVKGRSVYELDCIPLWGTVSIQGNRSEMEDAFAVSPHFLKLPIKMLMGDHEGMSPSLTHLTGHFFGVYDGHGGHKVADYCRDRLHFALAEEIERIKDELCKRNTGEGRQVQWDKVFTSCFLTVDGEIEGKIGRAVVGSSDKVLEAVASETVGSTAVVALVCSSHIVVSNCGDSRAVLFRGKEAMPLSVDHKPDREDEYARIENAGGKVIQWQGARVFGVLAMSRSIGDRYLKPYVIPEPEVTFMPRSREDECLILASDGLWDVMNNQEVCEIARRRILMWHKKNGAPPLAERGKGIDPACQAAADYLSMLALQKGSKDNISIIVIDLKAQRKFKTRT
In short: (§1)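 Fluorogenic readout: 4-methylumbelliferyl-phosphate hydrolysis by 50 nM GST-HAB1 plus 2:1 His-receptor; Tris-OAc pH 7.9, NaCl, 1 mM MnCl2, β-ME. Compounds at 25 μM or 50 uM single dose; IC50 from dose curves for selected compounds.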

PYL1 = biological target: T2, PYL1 (Arabidopsis thaliana, UniProt Q8VZS8); experiment: as above; type: biochemical; settings: for remaining activity at 50 µM: 50 uM of the test compound
T2 construct: 6X-His; made in house; host or cells: E. coli BL21[DE3]pLysS
T2 sequence (Q8VZS8 1-221): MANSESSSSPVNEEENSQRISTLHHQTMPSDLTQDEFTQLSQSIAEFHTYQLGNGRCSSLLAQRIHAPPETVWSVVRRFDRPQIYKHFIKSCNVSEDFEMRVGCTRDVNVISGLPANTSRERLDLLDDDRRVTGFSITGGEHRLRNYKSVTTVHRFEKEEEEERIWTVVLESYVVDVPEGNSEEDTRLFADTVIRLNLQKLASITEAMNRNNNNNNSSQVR
T2 sequence (Q9CAJ0 23-511 partner): T1 sequence (Q9CAJ0 23-511 partner)
In short: as §1

[1] = Table VII, read-out: PP2C Dose Curves PYR1 (IC50)
[2] = Table VII, read-out: PP2C Dose Curves PYL1 (IC50)
[3] = Table XII-B, calculated from dose curves, read-out: PP2C Activity (IC50 in uM) PYR1
[4] = Table XII-B, calculated from dose curves, read-out: PP2C Activity (IC50 in uM) PYL1

Q: Which “PP2C Activity PYR1” value (PYR1; ABA (10 μM)) does the source give for `CC1=CC(=O)CC(C)(C)[C@@]1(O)/C=C/C(C)=C\C(=O)O` [ABA, Abscisic acid, reference compound] here?
A: The value was 6.0.

Q: And the “PP2C Activity PYL1” value (PYL1; ABA (10 μM))?
A: The value was 5.9.

Q: For `CCC(CC)(C(=O)NS(=O)(=O)Cc1ccc([N+](=O)[O-])cc1)c1ccccc1` [Compound 19], which IC50 (PYR1; [1]) is on record?
A: The IC50 was over 50 µM.

Q: And the IC50 (PYL1; [2])?
A: Its IC50 is over 50 µM.

Q: How did the IC50 (PYR1; [1]) turn out when `N#Cc1ccc(CS(=O)(=O)NC(=O)C2(c3ccc(F)cc3)CCCC2)cc1` [Compound 24] was run?
A: The IC50 was over 50 µM.

Q: What about the IC50 (PYL1; [2]) of the same molecule?
A: Its IC50 is over 50 µM.

Q: What does the source list for `O=C(NS(=O)(=O)Cc1ccc([N+](=O)[O-])cc1)C1(c2ccccc2)CCCCC1` [Compound 63]?
A: remaining activity at 50 µM (PYR1): 101%; IC50 (PYR1; [3]): > 50 µM; remaining activity at 50 µM (PYL1): 101%; IC50 (PYL1; [4]): > 50 µM

Q: For `O=C(NS(=O)(=O)Cc1ccc(F)cc1)C1(c2ccccc2)CCCCC1` [Compound 64], which remaining activity at 50 µM (PYR1) is on record?
A: Its remaining activity at 50 µM is 98.4%.

Q: And the IC50 (PYR1; [3])?
A: Its IC50 is over 50 µM.

Q: And the remaining activity at 50 µM (PYL1)?
A: The remaining activity at 50 µM was 102%.

Q: What about the IC50 (PYL1; [4]) of the same molecule?
A: Its IC50 is over 50 µM.

Q: For `CC(C)COC(=O)NS(=O)(=O)Cc1ccc(C#N)cc1` [Compound 65, 2-Methylpropyl N-[(4-cyanophenyl)methanesulfonyl]carbamate], which remaining activity at 50 µM (PYR1) is on record?
A: The remaining activity at 50 µM was 96.2%.

Q: What about the IC50 (PYR1; [3]) of the same molecule?
A: The IC50 was over 50 µM.

Q: And the remaining activity at 50 µM (PYL1)?
A: Its remaining activity at 50 µM is 91.7%.

Q: And the IC50 (PYL1; [4])?
A: The IC50 was over 50 µM.

Q: What does the source list for `CC1CCC(C(=O)NS(=O)(=O)Cc2ccc(C#N)cc2)(c2ccc(F)cc2)CC1` (stereo not drawn) [Compound 67, N-[(4-Cyanophenyl)methanesulfonyl]-1-(4-fluorophenyl)-4-methylcyclohexane-1-carboxamide]?
A: remaining activity at 50 µM (PYR1): 99.6%; IC50 (PYR1; [3]): > 50 µM; remaining activity at 50 µM (PYL1): 98.3%; IC50 (PYL1; [4]): > 50 µM

Q: Which results are given for `CC1(C)CCC(C(=O)NS(=O)(=O)Cc2ccc(C#N)cc2)(c2ccc(F)cc2)CC1` [Compound 68, N-[(4-Cyanophenyl)methanesulfonyl]-1-(4-fluorophenyl)-4,4-dimethylcyclohexane-1-carboxamide]?
A: remaining activity at 50 µM (PYR1): 94.4%; IC50 (PYR1; [3]): > 50 µM; remaining activity at 50 µM (PYL1): 96%; IC50 (PYL1; [4]): > 50 µM

Q: `N#Cc1ccc(CS(=O)(=O)NC(=O)C2(c3ccccc3)CCCCC2)cc1` [Compound 69, N-[(4-Cyanophenyl)methanesulfonyl]-1-phenylcyclohexane-1-carboxamide] was tested. Which remaining activity at 50 µM (PYR1) did it give?
A: The remaining activity at 50 µM was 96%.

Q: What about the IC50 (PYR1; [3]) of the same molecule?
A: The IC50 was over 50 µM.

Q: And the remaining activity at 50 µM (PYL1)?
A: Its remaining activity at 50 µM is 98.4%.

Q: And the IC50 (PYL1; [4])?
A: The IC50 was over 50 µM.

Q: `N#Cc1ccc(CS(=O)(=O)NC(=O)C(c2ccccc2)c2ccccc2)cc1` [Compound 71, N-[(4-Cyanophenyl)methanesulfonyl]-2,2-diphenylacetamide] was tested. Which remaining activity at 50 µM (PYR1) did it give?
A: Its remaining activity at 50 µM is 97.9%.

Q: What about the IC50 (PYR1; [3]) of the same molecule?
A: The IC50 was over 50 µM.

Q: What about the remaining activity at 50 µM (PYL1) of the same molecule?
A: The remaining activity at 50 µM was 93.8%.

Q: What about the IC50 (PYL1; [4]) of the same molecule?
A: Its IC50 is over 50 µM.

Q: What does the source list for `N#Cc1ccc(CS(=O)(=O)NC(=O)C(c2ccc(F)cc2)c2ccc(F)cc2)cc1` [Compound 72, N-[(4-Cyanophenyl)methanesulfonyl]-2,2-bis(4-fluorophenyl)acetamide]?
A: remaining activity at 50 µM (PYR1): 93.9%; IC50 (PYR1; [3]): > 50 µM; remaining activity at 50 µM (PYL1): 94.2%; IC50 (PYL1; [4]): > 50 µM

Q: Which remaining activity at 50 µM (PYR1) does the source give for `N#Cc1ccc(CS(=O)(=O)NC(=O)C(C2CCCCC2)C2CCCCC2)cc1` [Compound 73, N-[(4-Cyanophenyl)methanesulfonyl]-2,2-cyclohexylacetamide] here?
A: Its remaining activity at 50 µM is 91.6%.

Q: And the IC50 (PYR1; [3])?
A: The IC50 was over 50 µM.

Q: What about the remaining activity at 50 µM (PYL1) of the same molecule?
A: The remaining activity at 50 µM was 95.5%.

Q: And the IC50 (PYL1; [4])?
A: The IC50 was over 50 µM.

Q: How did the remaining activity at 50 µM (PYR1) turn out when `N#Cc1ccc(CS(=O)(=O)NC(=O)C2(c3cccs3)CCCCC2)cc1` [Compound 75, N-[(4-Cyanophenyl)methanesulfonyl]-1-(thiophen-2-yl)cyclohexane-1-carboxamide] was run?
A: The remaining activity at 50 µM was 96.1%.

Q: What about the IC50 (PYR1; [3]) of the same molecule?
A: Its IC50 is over 50 µM.

Q: And the remaining activity at 50 µM (PYL1)?
A: The remaining activity at 50 µM was 95.5%.

Q: What about the IC50 (PYL1; [4]) of the same molecule?
A: Its IC50 is over 50 µM.

Q: Which remaining activity at 50 µM (PYR1) does the source give for `N#Cc1ccc(CS(=O)(=O)NC(=O)C2(c3ccsc3)CCCCC2)cc1` [Compound 78, N-[(4-Cyanophenyl)methanesulfonyl]-1-(thiophen-3-yl)cyclohexane-1-carboxamide] here?
A: The remaining activity at 50 µM was 90.9%.

Q: And the IC50 (PYR1; [3])?
A: Its IC50 is over 50 µM.

Q: What about the remaining activity at 50 µM (PYL1) of the same molecule?
A: Its remaining activity at 50 µM is 95.6%.

Q: What about the IC50 (PYL1; [4]) of the same molecule?
A: Its IC50 is over 50 µM.

Q: How did the remaining activity at 50 µM (PYR1) turn out when `N#Cc1ccc(CS(=O)(=O)NC(=O)C2(c3ccsc3)CCCCC2)cc1Br` [Compound 106, N-[(4-Cyano-3-bromophenyl)methanesulfonyl]-1-(thiophen-3-yl)cyclohexane-1-carboxamide] was run?
A: Its remaining activity at 50 µM is 98.9%.

Q: What about the IC50 (PYR1; [3]) of the same molecule?
A: Its IC50 is over 50 µM.

Q: And the remaining activity at 50 µM (PYL1)?
A: Its remaining activity at 50 µM is 94.3%.

Q: And the IC50 (PYL1; [4])?
A: The IC50 was over 50 µM.
